Where a SMILES comes first, the peptide text is derived from it. The star is where a group is joined. CHN2 = [N-]=[N+]=C*
System: PC12 cells
Assay: KCN-induced necrosis of PC12 cells, LDH release
Type: cell-based, rat
Conditions: for % protection at indicated concentration 0.1 nM / % protection at indicated concentration 1 nM / % protection at indicated concentration 10 nM / % protection at indicated concentration 100 nM / % protection at indicated concentration 1 μM / protection of cells at 10 μM: KCN-induced necrosis (Table 2); for inhibition at 0.0001 µM / inhibition at 0.001 µM / inhibition at 0.01 µM / inhibition at 0.1 µM / inhibition at 1 µM: Rattus norvegicus, PC-12, 5 h, KCN, PC12, LDH release (Table 5); for % protection at indicated concentration 0.1 nM / inhibition at 0.0001 µM: 0.1 nM; for inhibition at 0.0001 µM: read-out: % protection at 0.1 nM; for % protection at indicated concentration 1 nM / inhibition at 0.001 µM: 1 nM; for inhibition at 0.001 µM: read-out: % protection at 1 nM; for % protection at indicated concentration 10 nM / inhibition at 0.01 µM: 10 nM; for inhibition at 0.01 µM: read-out: % protection At 10 nM; for inhibition at 0.1 µM: read-out: % protection at 0.1 μM; for inhibition at 1 µM: read-out: % protection at 1 μM
Description: The rat pheochromocytoma PC12 cell line was propagated in DMEM medium (Beit Haemek, Israel), supplemented with 5% heat-inactivated calf serum, 10% heat-inactivated horse serum, 2 mM L-glutamine, 100 U/ml penicillin and 100 μg/ml streptomycin. PC12 cells in logarithmic phase were seeded at a concentration of 1.2×10^5/well in 96-well plates and incubated overnight.
Thereafter, the cells were washed twice and maintained in RPMI-1640 (U-937cells) and DMEM (PC-12 cells) glucose-free medium, supplemented with 2 mM pyruvate and 10% dialyzed FCS for one hour. Then cells were treated with or without KCN (Merck, Germany) at the indicated concentrations for 7 hours (U-937 cells), or for 5 hours (PC12 cells).
Elastase inhibitors II (MeOSuc-AAPA-CMK) and elastase inhibitor III (MeOSuc-AAPV-CMK) were purchased from Calbiochem-Novabiochem, USA. Compound Gly-Phe diazomethylketone was purchased from MP Biomedicals, USA. All the compounds disclosed in Table 1 hereinabove were purchased from ChemDiv, San Diego, CA. The compounds were dissolved in DMSO and were administered 30 min before addition of the cell death inducer. The final concentration of DMSO, added to all samples, was 0.1%, which had no effect by itself siRNA and cell transfection
The amount of LDH released from lysed cells is a sensitive measure of cell death. Necrotic cell death was measured in 96-well plates using Promega CytoTox 96 LDH assay kit. LDH content from the cells lysed in 0.1% Triton X-100 for 10 min was used as an index of total LDH. The LDH released in culture medium was used as an index of necrotic cell death and the percentage from total LDH was calculated. The protection by the inhibitor was calculated based on comparing percentage of LDH release in the presence and in the absence of the inhibitor. The inhibitors were also added to totals, blanks and controls. Absorbance at 490 nm was measured by ELISA reader (BioTec).
These compounds were tested for their ability to inhibit necrosis induced by KCN in PC12 cells. The necrotic mode of cell death in this system was validated as previously described. PC12 cells were challenged with KCN as described above. The protective results of the compounds against KCN-induced necrosis assessed using LDH release method are shown below in Table 5. The IC50 values of these inhibitors is in the range of tens to single nanomolar.

| SMILES | inhibition at 0.0001 µM [%] | inhibition at 0.001 µM [%] | inhibition at 0.01 µM [%] | inhibition at 0.1 µM [%] | inhibition at 1 µM [%] | also measured |
| --- | --- | --- | --- | --- | --- | --- |
| O=C(C1CCCC1)N1CCN=C1N1CCCC1 [M059-0082, cyclopentyl(2-(pyrrolidin-1-yl)-4,5-dihydro-1H-imidazol-1-yl)methanone] |  |  |  |  |  | % protection at indicated concentration 0.1 nM: 33%; % protection at indicated concentration 1 nM: 25%; % protection at indicated concentration 10 nM: 51%; % protection at indicated concentration 100 nM: 79%; % protection at indicated concentration 1 μM: 85% |
| CN(C)c1ccc(Nc2nc(-c3ccc(Cl)cc3)cs2)cc1 [4112-3656, N1-(4-(4-chlorophenyl)thiazol-2-yl)-N4,N4-dimethylbenzene-1,4-diamine] | 30 | 25 | 55 | 73 | 77 | % protection at indicated concentration 0.1 nM: 30%; % protection at indicated concentration 1 nM: 25%; % protection at indicated concentration 10 nM: 55%; % protection at indicated concentration 100 nM: 73%; % protection at indicated concentration 1 μM: 77% |
| [N-]=[N+]=CC(=O)[C@H](Cc1ccccc1)NC(=O)CN [Gly-Phe-DMK, Gly-Phe-diazomethylketone, reference compound] (H-Gly-Phe-CHN2) |  |  |  |  |  | KCN-induced necrotic cell death assessed by LDH release (PC12, KCN 5 hours, FIGS. 6, 7A-B): inhibited cell necrosis |
| Cn1c(-c2c(C(C)(C)C)oc3cc(OC(=O)C(C)(C)C)ccc3c2=O)nc2ccccc21 [4356-0595, 2-(tert-butyl)-3-(1-methyl-1H-benzo[d]imidazol-2-yl)-4-oxo-4H-chromen-7-yl pivalate] | 4 | 21 | 36 | 57 | 69 |  |
| O=C(c1ccccc1F)N1CCN=C1N1CCCCC1 [M059-0216, (2-fluorophenyl)-[2-(1-piperidyl)-4,5-dihydroimidazol-1-yl] methanone] |  |  |  |  |  | protection of cells at 10 μM: 10 μM confers protection 71% of cells |
| CCn1c2ccccc2c2nnc(NCc3ccccn3)nc21 [E205-0066, 5-ethyl-N-(pyridin-2-ylmethyl)-5H-[1,2,4]triazino[5,6-b]indol-3-amine] |  |  | 18 | 32 | 58 |  |
| CC(C)N1CCN(C(=O)CN2C(=O)C3CCCN3C(=O)c3cc(F)ccc32)CC1 (stereo not drawn) [M284-0488, 7-fluoro-10-(2-(4-isopropylpiperazin-1-yl)-2-oxoethyl)-2,3-dihydro-1H-benzo[e]pyrrolo[1,2-a][1,4]diazepine-5,11(10H,11aH)-dione] | 35 | 51 | 82 | 72 | 80 |  |
| O=C(c1ccccc1Br)N1CCN=C1N1CCCCC1 [M059-0193, (2-bromophenyl)-[2-(1-piperidyl)-4,5-dihydroimidazol-1-yl] methanone] |  |  |  |  |  | protection of cells at 10 μM: 10 μM confers protection 58% of cells |
| O=S1(=O)N=C(NCCN2CCCC2)C(NCCN2CCCC2)=N1 [Z087-0195, 3,4-bis((2-(pyrrolidin-1-yl)ethyl)amino)-1,2,5-thiadiazole 1,1-dioxide] | 9 | 21 | 25 | 80 | 98.5 |  |
| COc1cc(C(=O)n2nc(C)cc2C)cc(OC)c1OC [3346-3249, (3,5-dimethyl-1H-pyrazol-1-yl)(3,4,5-trimethoxyphenyl)methanone] |  |  |  |  | 52 |  |
| CCN1CCN(c2c(C)c(C)nc3ncnn23)CC1 [Z606-8336, 7-(4-ethylpiperazin-1-yl)-5,6-dimethyl-[1,2,4]triazolo[1,5-a]pyrimidine] | 29 | 35 | 54 | 64 | 75 |  |
| CCc1ccccc1S(=O)(=O)Nc1ccc(N2CCN(CC)CC2)cc1C(=O)O [F684-0507, 2-(2-ethylphenylsulfonamido)-5-(4-ethylpiperazin-1-yl)benzoic acid] |  |  |  |  | 56 |  |
| Cn1c(=O)[nH]c(=O)c2[nH]c(N3CCCCC3)nc21 [D226-0031, 3-methyl-8-(piperidin-1-yl)-1H-purine-2,6(3H,7H)-dione] | 29 | 26 | 43 | 37 | 65 |  |
| COc1cc(OC)cc(-c2nc3ccc(Br)cc3c(=O)o2)c1 [3952-1000, 6-bromo-2-(3,5-dimethoxyphenyl)-4H-benzo[d][1,3]oxazin-4-one] | 35 | 33 | 38 | 35 | 77 | % protection at indicated concentration 0.1 nM: 35%; % protection at indicated concentration 1 nM: 33%; % protection at indicated concentration 10 nM: 38%; % protection at indicated concentration 100 nM: 35%; % protection at indicated concentration 1 μM: 77% |
| O=C(c1ccccc1Cl)N1CCN=C1N1CCCCC1 [M059-0326, (2-chlorophenyl)-[2-(1-piperidyl)-4,5-dihydroimidazol-1-yl] methanone] |  |  |  |  |  | protection of cells at 10 μM: 10 μM confers protection 56% of cells |
| O=C(CN1C(=O)C2CCCN2C(=O)c2ccc(F)cc21)Nc1ccc(F)c(F)c1 (stereo not drawn) [M284-0942, N-(3,4-difluorophenyl)-2-(8-fluoro-5,11-dioxo-2,3,11,11a-tetrahydro-1H-benzo[e]pyrrolo[1,2-a][1,4]diazepin-10(5H)-yl)acetamide] |  |  |  | 52 |  |  |
| c1ccc(-c2noc(CC3CCCCC3)n2)nc1 [4953-1443, 5-(cyclohexylmethyl)-3-(pyridin-2-yl)-1,2,4-oxadiazole] |  |  |  |  | 51 |  |
| O=C(O)c1nc2ncccn2n1 [R052-2664, [1,2,4]triazolo[1,5-a]pyrimidine-2-carboxylic acid] |  |  | 21 | 49 | 50 |  |
| O=C(O)Cn1nnc(-c2ccncc2)n1 [8018-2960, 2-(5-(pyridin-4-yl)-2H-tetrazol-2-yl)acetic acid] | 38 | 25 | 54 | 80 | 84 |  |
| O=C(c1ccco1)N1CCN=C1N1CCCC1 [M059-0032, furan-2-yl(2-(pyrrolidin-1-yl)-4,5-dihydro-1H-imidazol-1-yl)methanone] | 7 | 25 | 37 | 59 | 72 |  |
| CCOC(=O)C1=C(C)N(CC(=O)NCc2ccc(C)cc2)c2ncnn2C1c1ccccc1 (stereo not drawn) [D529-0049, ethyl 5-methyl-4-(2-((4-methylbenzyl)amino)-2-oxoethyl)-7-phenyl-4,7-dihydro-[1,2,4]triazolo[1,5-a]pyrimidine-6-carboxylate] |  |  | 33 | 42 | 51 |  |
| CC(=O)Oc1ccc2nc(-c3cccc(Br)c3)oc(=O)c2c1 [4334-1600, 2-(3-bromophenyl)-4-oxo-4H-benzo[d][1,3]oxazin-6-yl acetate] | 28 | 30 | 28 | 71 | 74 | % protection at indicated concentration 0.1 nM: 28%; % protection at indicated concentration 1 nM: 30%; % protection at indicated concentration 10 nM: 28%; % protection at indicated concentration 100 nM: 70%; % protection at indicated concentration 1 μM: 74% |
| CC(=O)Nc1nc(SCCC(=O)O)n[nH]1 [L150-1122, 3-((5-acetamido-1H-1,2,4-triazol-3-yl)thio)propanoic acid] | 22 | 25 | 30 | 44 | 68 |  |
| CCCC(=O)N1CCN=C1N1CCCCC1 [M059-0335, 1-(2-(piperidin-1-yl)-4,5-dihydro-1H-imidazol-1-yl)butan-1-one] |  |  |  |  | 47 |  |

From patent US11945787B2, “Substituted imidazoles for preventing and/or treating cell or tissue necrosis” (Ela Pharma Ltd, priority 2015, dated 2024)
